Experimental findings from patent US7371737B2, “2-substituted-6-trifluoromethyl purine derivatives with adenosine-A3 antagonistic activity” (Solvay Pharmaceuticals, B.V., priority 2004, dated 2008) are described below.

In assay [1] the target is T1, human adenosine-A1 receptors (Homo sapiens, UniProt P30542).
T1 construct: expressed in transfected cells; host or cells: CHO cells
T1 sequence (P30542 1-326): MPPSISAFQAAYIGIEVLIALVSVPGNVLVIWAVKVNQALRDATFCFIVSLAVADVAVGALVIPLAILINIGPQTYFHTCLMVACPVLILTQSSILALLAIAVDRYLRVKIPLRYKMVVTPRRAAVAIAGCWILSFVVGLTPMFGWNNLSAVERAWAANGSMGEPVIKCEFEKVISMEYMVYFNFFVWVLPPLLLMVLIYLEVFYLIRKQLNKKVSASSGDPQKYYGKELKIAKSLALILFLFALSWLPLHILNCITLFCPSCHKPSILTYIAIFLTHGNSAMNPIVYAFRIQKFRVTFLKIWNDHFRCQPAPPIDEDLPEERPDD
In words: In vitro affinity for human adenosine-A1 receptors (radioligand [3H]DPCPX). Format: binding. The settings on record: human recombinant receptors expressed in CHO cells; for Ki: read-out: Adenosine receptor affinity (binding) A1 pKi (converted). As to the method:
Affinity of the compounds for human adenosine-A1 receptors was determined using the receptor binding assay described by A. Townsend-Nicholson and P. R. Schofield (Biol. Chem., 269, 2373, 1994), using human recombinant receptors expressed in CHO cells, and [^3H]DPCPX as radioligand.

In assay [2] the target is T2, human adenosine-A2A receptors (Homo sapiens, UniProt P29274).
T2 construct: expressed in transfected cells; host or cells: HEK-293 cells
The experiment in a line: In vitro affinity for human adenosine-A2A receptors (radioligand [3H]CGS 21680). In kind it is binding. The conditions noted are these: human recombinant receptors expressed in HEK-293 cells; for Ki: read-out: Adenosine receptor affinity (binding) A2A pKi (converted). The procedure:
Affinity of the compounds for human adenosine-A2A receptors was determined using the receptor binding assay described by D. R. Luthin et al., (Mol. Pharmacol., 47, 307, 1995), using human recombinant receptors expressed in HEK-293 cells, and [^3H]CGS 21680 as radioligand.

Assay [3] has as its target T3, human Adenosine A3 receptor (Homo sapiens, UniProt P0DMS8).
T3 sequence (P0DMS8 1-318): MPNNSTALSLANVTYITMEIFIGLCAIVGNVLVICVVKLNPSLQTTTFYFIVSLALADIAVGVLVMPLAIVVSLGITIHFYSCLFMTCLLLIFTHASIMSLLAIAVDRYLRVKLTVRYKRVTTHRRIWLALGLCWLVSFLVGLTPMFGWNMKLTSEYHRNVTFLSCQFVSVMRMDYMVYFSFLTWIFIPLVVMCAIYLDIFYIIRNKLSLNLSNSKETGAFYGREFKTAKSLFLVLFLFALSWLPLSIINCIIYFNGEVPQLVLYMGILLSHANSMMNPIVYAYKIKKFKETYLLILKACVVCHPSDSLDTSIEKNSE
The experiment in a line: In vitro affinity for human adenosine-A3 receptors (radioligand [125I]-AB-MECA). Format: binding. On the set-up: expressed in transfected cells; host or cells: HEK 293 cells (membrane preparations). The settings on record: membranes of HEK 293 cells stably expressing human A3, [125I]-AB-MECA, 22° C., 90 minutes; for Ki: read-out: Adenosine receptor affinity (binding) A3 pKi (converted). As to the method:
Affinity of the compounds for human adenosine-A3 receptors was determined using the receptor binding assay described by C. A. Salvatore et al.: “Molecular cloning and characterization of the human A3 adenosine receptor”, Proc. Natl. Acad. Sci. USA, 90, 10365-10369, 1993. Briefly, membrane preparations were obtained from human recombinant (HEK 293) cells in which the human adenosine-A3 receptor was stably expressed. […] Separation of bound radioactivity from free was done by filtration through Packard GF/B glass fiber filters with several washings with ice-cold buffer using a Packard cell harvester. Bound radioactivity was measured with a scintillation counter (Topcount, Packard) using a liquid scintillation cocktail (Microscint 0, Packard). […] Determination of In Vitro Functional Activity on Human Adenosine A3 Receptors Using an Aequorin-based Assay

Assay [4] deals with T3, human Adenosine A3 receptor. In words: In vitro functional activity on human adenosine A3 receptors using an Aequorin-based assay. In kind it is cell-based. On the set-up: A. et al. (Acc. Number GenBank: L22607); host or cells: CHO-K1 cells stably expressing mitochondrially targeted aequorin and Galpha16. The conditions noted are these: hA3-Aequorin CHO-K1 cells; for EC50: agonist mode, concentrations up to 10^−5 M, read-out: Functional activity A3 agonism pEC50 (converted); for Kb: antagonist mode, N6-benzyl-NECA as the agonist, read-out: Functional activity A3 antagonism pA2 (converted). The source says:
A stable monoclonal hA3-Aequorin cell line was provided by Euroscreen. The coding region encoding the human Adenosine A3 receptor was amplified by polymerase chain reaction (PCR), using human lung cDNA as template. The PCR product was ligated in the expression vector pEFIN3 (Invitrogen), and the complete sequence of the insert was then established. […] A. et al. (Acc. Number GenBank: L22607). The expression plasmid containing the coding sequence of the human Adenosine A3 receptor was transfected in CHO-K1 cells stably expressing mitochondrially targetted Aequorin and Gα16. Resistant clones were selected in the presence of 400 μg/ml G418 and isolated by limiting dilution. […] The hA3-Aequorin cells express mitochondrially targetted apo-Aequorin. Cells have to be loaded with coelenterazine, in order to reconstitute active Aequorin. After binding of agonists to the hA3 receptor, the intracellular calcium concentration increases, which leads to a luminescent response. Binding of calcium to the apo-Aequorin/coelenterazine complex leads to an oxidation reaction of coelenterazine, which results in the production of apo-Aequorin, coelenteramide, CO2 and light (λmax 469 nm). This luminescent response is dependent on the agonist concentration.
Assay-protocol: • Dilute the loaded cells 18× in Dulbecco's medium without PhenolRed (Gibco BRL), pre-heated to 37° C., resulting in a concentration of 2.8*10^5 cells/ml. • Stir for 1 hour at room temperature. • Add 10 μl compound or control per well in white 96-well plates. • Add 90 μl of diluted cells (2.5*10^4 cells/well). • Measure chemoluminescence immediately for 20 seconds. • In antagonist mode 50 μl 10^−6 N6-benzyl-NECA is added as the agonist. • Measure chemoluminescence immediately for 20 seconds using the MicroBetaJet (PerkinElmer).

Molecules are shown by their SMILES. Some results are limits rather than exact numbers.

T2 sequence (P29274 whole entry): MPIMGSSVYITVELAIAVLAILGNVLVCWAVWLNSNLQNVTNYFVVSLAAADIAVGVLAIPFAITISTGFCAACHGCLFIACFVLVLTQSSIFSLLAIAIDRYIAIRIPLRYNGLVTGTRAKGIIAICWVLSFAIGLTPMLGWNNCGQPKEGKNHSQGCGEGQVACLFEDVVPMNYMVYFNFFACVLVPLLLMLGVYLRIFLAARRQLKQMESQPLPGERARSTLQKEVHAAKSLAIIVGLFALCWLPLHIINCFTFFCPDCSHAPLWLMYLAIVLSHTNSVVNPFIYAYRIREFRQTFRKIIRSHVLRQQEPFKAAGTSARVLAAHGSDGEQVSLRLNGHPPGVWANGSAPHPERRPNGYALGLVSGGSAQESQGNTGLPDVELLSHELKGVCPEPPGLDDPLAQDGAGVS

`Cn1cnc2c(C(F)(F)F)nc([N+](=O)[O-])nc21` [Compound 1, 2-nitro-6-trifluoromethyl-9-methyl purine]: the Ki in assay [1] is over 10 µM; in assay [2], over 10 µM; in assay [3] it was 3.98 µM.
On to `OC[C@H]1O[C@@H](n2cnc3c(C(F)(F)F)nc(N4CCCCC4)nc32)[C@H](O)[C@@H]1O` [Compound 3, 2-piperidinyl-6-trifluoromethyl-9-β-D-ribofuranosyl purine], for which, in assay [1], the “Adenosine receptor affinity (binding) A1 pKi” value was under 5.0. Further, the “Adenosine receptor affinity (binding) A2A pKi” value in assay [2] is reported as under 5.0. The “Adenosine receptor affinity (binding) A3 pKi” value in assay [3] is recorded as 5.4.
Regarding `OC[C@H]1O[C@@H](n2cnc3c(C(F)(F)F)nc(N4CCC(O)CC4)nc32)[C@H](O)[C@@H]1O` [Compound 4, 2-(4-OH-piperidinyl)-6-trifluoromethyl-9-β-D-ribofuranosyl purine], the Ki in assay [1] was over 10 µM; in assay [2] it was over 10 µM; in assay [3], 15.8 µM. Further, the EC50 in assay [4] was over 10 µM. Further, in assay [4], the Kb is 0.2 µM.
As to `Cn1c(I)nc2c(C(F)(F)F)nc(NCCc3ccccc3)nc21` [Compound 12, 8-iodo-6-trifluoromethyl-9-methyl-2-phenethylamino purine], the results for the Ki in assay [1], in assay [2] and in assay [3] were over 10 µM, over 10 µM and 2.51 µM, respectively. In addition, the EC50 in assay [4] is over 10 µM. Also, in assay [4], the Kb is 2 µM.
With `Cn1c(-c2ccco2)nc2c(C(F)(F)F)nc(NCCc3ccccc3)nc21` [Compound 13, 8-(furan-2-yl)-6-trifluoromethyl-9-methyl-2-phenethylamino purine], the Ki in assay [1] was over 10 µM; in assay [2] it was 7.94 µM; in assay [3] it was 1.26 µM. The EC50 in assay [4] was over 10 µM. Further, the Kb in assay [4] is 0.158 µM.
As to `Cn1c(N2CCCC2)nc2c(C(F)(F)F)nc(NCCc3ccccc3)nc21` [Compound 15, 8-N-pyrrolidinyl-6-trifluoromethyl-9-methyl-2-phenethylamino purine], the Ki was over 10 µM in assay [1], over 10 µM in assay [2] and 3.16 µM in assay [3].
Consider `Cn1c(N2CCCCC2)nc2c(C(F)(F)F)nc(NCCc3ccccc3)nc21` [Compound 16, 8-N-piperidinyl-6-trifluoromethyl-9-methyl-2-phenethyl amino purine], for which the figures for the Ki in assay [1], in assay [2] and in assay [3] were over 10 µM, 15.8 µM and 3.98 µM, respectively.
Take `Cn1c(N2CCOCC2)nc2c(C(F)(F)F)nc(NCCc3ccccc3)nc21` [Compound 17, 8-N-morpholinyl-6-trifluoromethyl-9-methyl-2-phenethylamino purine]: the Ki in assay [1] is over 10 µM; in assay [2] it was over 10 µM; in assay [3], 1.58 µM.
For `Cn1c(NC2CCCC2)nc2c(C(F)(F)F)nc(NCCc3ccccc3)nc21` [Compound 18, 8-cyclopentylamino-6-trifluoromethyl-9-methyl-2-phenethylamino purine], the Ki in assay [1] is 3.16 µM; in assay [2], 1.26 µM; in assay [3], 0.631 µM.
On to `Cn1c(-c2ccccc2)nc2c(C(F)(F)F)nc(NCCc3ccccc3)nc21` [Compound 19, 8-phenyl-6-trifluoromethyl-9-methyl-2-phenethylamino purine], for which the Ki was over 10 µM in assay [1], 7.94 µM in assay [2] and 2 µM in assay [3].
Take `Cn1c(-c2cccc(F)c2)nc2c(C(F)(F)F)nc(NCCc3ccccc3)nc21` [Compound 20, 8-(3-fluorophenyl)-6-trifluoromethyl-9-methyl-2-phenethylamino purine]: the Ki in assay [1] was 7.94 µM; in assay [2], over 10 µM; in assay [3], 1 µM.
As to `Cn1c(/C=C/c2ccccc2)nc2c(C(F)(F)F)nc(NCCc3ccccc3)nc21` [Compound 21, 8-E-styryl-6-trifluoromethyl-9-methyl-2-phenethylamino purine], the Ki was over 10 µM in assay [1], over 10 µM in assay [2] and 3.98 µM in assay [3].
As to `Cn1c(C#Cc2ccccc2)nc2c(C(F)(F)F)nc(NCCc3ccccc3)nc21` [Compound 23, 8-phenylacetylene-6-trifluoromethyl-9-methyl-2-phenethylamino purine], the values for the Ki in assay [1], in assay [2] and in assay [3] were over 10 µM, over 10 µM and 0.501 µM, respectively.
Consider `Cn1c(/C=C/c2ccc(C(F)(F)F)cc2)nc2c(C(F)(F)F)nc(NCCc3ccccc3)nc21` [Compound 24, 8-E-(4-trifluoromethylstyryl)-6-trifluoromethyl-9-methyl-2-phenethylamino purine], for which the Ki is over 10 µM in assay [1], over 10 µM in assay [2] and 3.98 µM in assay [3].
Consider `Cn1c(/C=C\c2ccc(C(F)(F)F)cc2)nc2c(C(F)(F)F)nc(NCCc3ccccc3)nc21` [Compound 25, 8-Z-(4-trifluoromethylstyryl)-6-trifluoromethyl-9-methyl-2-phenethylamino purine], for which the figures for the Ki in assay [1], in assay [2] and in assay [3] were over 10 µM, over 10 µM and 5.01 µM, respectively.
With `OC[C@H]1O[C@@H](n2cnc3c(C(F)(F)F)nc(NCCc4ccc(O)cc4)nc32)[C@H](O)[C@@H]1O` [Compound 27, 2-(4-hydroxy-phenethylamino)-6-trifluoromethyl-9-β-D-ribo-furanosyl purine], the values for the Ki in assay [1], in assay [2] and in assay [3] were 5.01 µM, 3.16 µM and 0.01 µM, respectively.
The corresponding values for `CC(C)(C)OC(=O)OCn1cnc2c(C(F)(F)F)nc(NCCc3ccccc3)nc21` [Compound 28, 6-trifluoromethyl-2-phenetylamino-9-BocOM-purine] are 2.51 µM, over 10 µM and 0.0251 µM.
For `OC[C@H]1O[C@@H](n2cnc3c(C(F)(F)F)nc(OCCc4ccccc4)nc32)[C@H](O)[C@@H]1O` [Compound 30, 2-phenethyloxy-6-trifluoromethyl-9-β-D-ribofuranosyl purine], the Ki in assay [1] was 1.58 µM; in assay [2] it was 3.16 µM; in assay [3] it was 0.158 µM.
